Measurements taken from patent publication US8158623B2, “Heptacyclic compounds and the pharmaceutical uses thereof for preventing and treating diabetes and metabolic syndrome” (Shanghai Institute of Materia Medica Chinese Academy of …, priority 2007, dated 2012).

What was measured:
[1] = tested on: AMP-Activated Protein Kinase (AMPK); experiment: Phosphorylation of AMPK in HepG2 cell (Western blot); type: cell-based, Human; settings: HepG2, 50 uM, 5 minutes, P<0.01 or P<0.05
Experimental: (§1) Human hepatoma carcinoma cell strain (HepG2, purchased from the cell bank of Shanghai Institute of Cell Biology of Chinese Academy) was used. The Human hepatoma carcinoma cells were passaged by 0.1% pancreatin/0.02% EDTA digestion, and cultured in a incubator at 37° C. using MEM culture medium containing 10% FBS, under 5% CO2/95%.
(§2) HepG2 cells were cultured in 6-well plates for 48 hours until 70%-80% confluence. Serum starvation was started by changing medium with MEM containing 0.5% BSA. After starvation for 6 hours, cells were treated with the compounds (final concentration of 50 uM, containing 0.25% DMSO) for 5 minutes. The culture medium was discarded, and cells were harvested and washed for twice with pre-cooled PBS. The washing liquid was discarded, and any residual PBS was blotted dry. DMSO without heptacyclic compounds was used as control.
(§3) Extraction of total cellular protein: 150 μl/well homogenizing buffer (137 mM NaCl, 2.7 mM KCl, 1 mM MgCl2, 0.5 mM Na3VO4, 1% Triton X-100, 10% Glycerol, 20 mM Tris-HCl pH 7.8, 1 ug/ml Leupeptin, 0.2 mM PMSF, 10 mM NaF, 1 ug/ml Aprotinin, 1 mM EDTA, 1 mM DTT, 5 mM Sodium pyrophosphate, 1 mM Benzamidine) was added. Cells were collected into a 1.5 ml centrifuge tube using cell scraper. Cells were homogenized using sonicator (5 W of power) for 2 times (3 seconds per time), and shaken on a shaker for 1 hour. Supernatant (i.e., total cellular protein) was collected by centrifuging at 14000 rpm for 15 min at 4° C., and stored at −70° C. until use. After the protein concentration was determined by Bradford method, the supernatant was formulated as the loading sample with final concentration of 0.6 mg/ml. The whole preparation process was performed at 4° C.
(§4) Protein Electrophoresis: After being treated at 95° C. for 5 min, the loading sample was loaded (15 μg protein/lane). The protein was separated on 7.5% SDS-acrylamide gel for 1-2 hours under the voltage of 80-120 V.
(§5) Electrotransferring the protein and blocking the membrane: After electrophoresis was finished, the protein was transferred to PVDF membrane using semi-dry transferring slot based on 0.8 mA/cm^2 membrane area under the electric current of 80 mA for 2 hours. After that, the membrane was shaken for 2 hours with 7.5% skim milk/TTBS to block the membrane.
(§6) Antigen-antibody reaction: After the blocking process was finished, the membrane was incubated with primary antibody (antibody against phosphorylated ACC (P-ACC) and antibody against phosphorylated AMPK (P-AMPK), all purchased from Cell signaling (USA), with the working concentration of 1:1000) overnight at 4° C. The membrane was removed, and the primary antibody was recovered. The membrane was washed 5 times, each for 10 min in TTBS. The membrane was shaken for 2 hours with the secondary antibody (horseradish peroxidase-conjugated goat-anti-rabbit IgG antibody, purchased from Bio-rad (USA), with the working concentration of 1:5000) at room temperature. The secondary antibody was discarded. The membrane was washed 5 times, each for 10 min in TTBS in order to remove the unbound secondary antibody.
(§7) ECL exposure and development: Luminescent agents, ECL 1, 2, were mixed homogeneously, and incubated with the membrane for 3-5 min. The membrane was removed, wrapped in preservative film, and transferred into dark room for exposure. After exposure with X-film, the film was developed, washed, recorded and conserved.
(§8) Semi-quantitative analysis was performed through optical density scan using computer image analysis system. Grey level of the protein expression was calculated. The target grey level was divided by the grey level of internal standard, and a histogram was plotted, taking the normal group as 1 unit.

[2] = tested on: Acetyl CoA Carboxylase (ACC); experiment: Phosphorylation of ACC in HepG2 cell (Western blot); type: cell-based, Human; settings: HepG2, 50 uM, 5 minutes, P<0.01 or P<0.05
Experimental: as §1, §2, §3, §4, §5, §6, §7, §8

3T3-L1 adipocytes = experiment: Glucose uptake in 3T3-L1 adipocytes (3H-labelled 2-deoxyglucose); type: cell-based; settings: for Glucose uptake, Mean, Compound + Insulin Group (Control Group = 1.000): 10 μM, 2 h incubation, with insulin, relative to control without insulin; for fold induction at 10 µM: Mus musculus, 3T3-L1, 2 h incubation, baseline (without insulin), relative to control, read-out: Glucose uptake, Mean, Compound Group (Control Group = 1.000)
Experimental: The effect of the compounds on baseline or insulin-stimulated glucose uptake was evaluated, using the model of glucose uptake in 3T3-L1 adipocytes.
Adipose tissue is the target of glucose metabolism in vivo. The sensitivity for insulin and availability of glucose in adipose tissues are tightly associated with the insulin resistance. The transportation of glucose into adipocytes is a rate-limiting step for the glucose metabolism, and also an important indicator for evaluating the sensitivity for insulin in adipose tissue. 3T3-L1 is a kind of pre-adipocyte, and can become adipocyte after differentiated completely. Therefore, 3T3-L1 is a desirable model for the glucose transport.
Pre-adipocyte, 3T3-L1 was induced to differentiate under certain conditions. After 3T3-L1 differentiated into adipocytes, the compounds of interest with different concentrations and DMSO (used as control) can be added and incubated with the adipocytes for different periods, then the glucose uptake could be determined. For evaluating the ability for a compound to stimulate glucose uptake, the baseline and insulin-induced glucose uptake were determined, and the increase in baseline and insulin-induced glucose uptake upon treatment of the compounds as compared with control group (with 0.1% DMSO) is calculated, based on the ^3H-labelled 2-deoxyglucose inside the cells.
3T3-L1 cells purchased from Karolinska Institute (Sweden) were cultured in DMEM medium containing 10% fetal calf serum at 37° C., under 5% CO2. The cells were passaged every 3-4 days. The cells were inoculated into 12-well plate. Upon confluence, culture medium containing 0.5 mM 3-isobutyl-1-methylxanthine, 0.25 μM dexamethasone and 5 μg/ml insulin was added and cultured for 3 days. Then, the culture medium was replaced by a medium containing 5 μg/ml insulin and further cultured for 3 days. The insulin was removed, and the cells had differentiated completely into mature adipocytes after 2 days which could be used to determine the glucose uptake.
23 compounds chosen by the inventors were added into the culture medium of adipocytes in a dose of 10 μM. After incubation for 2 h, the effect of the compounds on glucose uptake in 3T3-L1 cells was observed. Culture medium without compounds was used as negative control. The control group only supplemented with insulin and the experiment group supplemented with compounds plus insulin were also employed to observe the effect of the compounds on glucose uptake.

Row | SMILES | Level of phosphorylation for AMPK protein versus DMSO control [1] | Level of phosphorylation for ACC protein versus DMSO control [2] | Glucose uptake, Mean, Compound + Insulin Group (Control Group = 1.000) (3T3-L1 adipocytes) | fold induction at 10 µM (3T3-L1 adipocytes)
1 | CCCOC(=O)c1cc(OC)c(C)c2c1Oc1c(CNc3ccc(S(N)(=O)=O)cc3)c(O)cc(C)c1C(=O)O2 [AA5, 3-Hydroxy-8-methoxy-1,9-dimethyl-11-oxo-4-[(4-sulfamoyl-phenylamino)-methyl]-11H-dibenzo[b,e][1,4]dioxepine-6-carboxylic acid propyl ester] | increased significantly |  |  | 
2 | CCCOC(=O)c1cc(OC)c(C)c2c1Oc1c(CNCCN3CCOCC3)c(O)cc(C)c1C(=O)O2 [AA6, 3-Hydroxy-8-methoxy-1,9-dimethyl-4-[(2-morpholin-4-yl-ethylamino)-methyl]-11-oxo-11H-dibenzo[b,e][1,4]dioxepine-6-carboxylic acid propyl ester] | increased significantly | improved significantly |  | 
3 | COc1cc(C(=O)O)c2c(c1C)OC(=O)c1c(C)cc(O)c(CNc3ccc(F)cc3)c1O2 [AA7, 4-[(4-Fluoro-phenylamino)-methyl]-3-hydroxy-8-methoxy-1,9-dimethyl-11-oxo-11H-dibenzo[b,e][1,4]dioxepine-6-carboxylic acid] |  | improved significantly | 1.786 | 1.13
4 | CCN(CC)C(=O)c1cc(OC)c(C)c2c1Oc1c(C=O)c(O)cc(C)c1C(=O)O2 [AB5, 4-Formyl-3-hydroxy-8-methoxy-1,9-dimethyl-11-oxo-11H-dibenzo[b,e][1,4]dioxepine-6-carboxylic acid diethylamide] | increased significantly | improved significantly | 1.755 | 1.29
5 | COc1cc(C(=O)NCc2ccccc2)c2c(c1C)OC(=O)c1c(C)cc(O)c(C=NCc3ccccc3)c1O2 [AB6, 4-(Benzylimino-methyl)-3-hydroxy-8-methoxy-1,9-dimethyl-11-oxo-11H-dibenzo[b,e][1,4]dioxepine-6-carboxylic acid benzylamide] | increased significantly | improved significantly | 1.432 | 1.14
6 | COc1ccc2c(c1)NC(=O)c1cc(Cl)c(O)cc1N2 [BT5, 2-Chloro-3-hydroxy-8-methoxy-5,10-dihydro-dibenzo[b,e][1,4]diazepin-11-one] |  | improved significantly | 1.728 | 1.23
7 | Cc1cc2c(c(C(=O)O)c1)Nc1ncccc1C(=O)N2 [BT7, 8-Methyl-5-oxo-6,11-dihydro-5H-benzo[b]pyrido[2,3-e][1,4]diazepine-10-carboxylic acid] | increased significantly | improved significantly |  | 
8 | COc1cnc2c(c1)NC(=O)c1ccc(O)c(C=O)c1N2 [BU0, 9-Hydroxy-3-methoxy-6-oxo-6,11-dihydro-5H-benzo[e]pyrido[3,2-b][1,4]diazepine-10-carbaldehyde] | increased significantly |  | 2.147 | 1.43
9 | COC(=O)c1cc(OC)c(C)c2c1Oc1c(C=O)c(O)cc(C)c1C(=O)O2 [Compound A0, 4-Formyl-3-hydroxy-8-methoxy-1,9-dimethyl-11-oxo-11H-dibenzo[b,e][1,4]dioxepine-6-carboxylic acid methyl ester] |  | improved significantly | 2.710 | 1.33
10 | CCOC(=O)c1cc(OC)c(C)c2c1Oc1c(C=O)c(O)cc(C)c1C(=O)O2 [Compound A2, 4-Formyl-3-hydroxy-8-methoxy-1,9-dimethyl-11-oxo-11H-dibenzo[b,e][1,4]dioxepine-6-carboxylic acid ethyl ester] | significant up-regulation | improved significantly | 3.138 | 1.37
11 | CCCOC(=O)c1cc(OC)c(C)c2c1Oc1c(C=O)c(O)cc(C)c1C(=O)O2 [Compound A4, 4-Formyl-3-hydroxy-8-methoxy-1,9-dimethyl-11-oxo-11H-dibenzo[b,e][1,4]dioxepine-6-carboxylic acid propyl ester] | significant up-regulation | improved significantly | 3.449 | 1.18
12 | CCCCOC(=O)c1cc(OC)c(C)c2c1Oc1c(C=O)c(O)cc(C)c1C(=O)O2 [Compound A6, 4-Formyl-3-hydroxy-8-methoxy-1,9-dimethyl-11-oxo-11H-dibenzo[b,e][1,4]dioxepine-6-carboxylic acid butyl ester] | significant up-regulation | improved significantly |  | 
13 | COc1cc(C(=O)O)c2c(c1C)OC(=O)c1c(C)cc(O)c(CN3CCNCC3)c1O2 [Compound D1, 3-Hydroxy-8-methoxy-1,9-dimethyl-11-oxo-4-(piperazin-1-ylmethyl)-11H-dibenzo[b,e][1,4]dioxepine-6-carboxylic acid] | increased significantly |  | 3.673 | 1.28
14 | COc1cc(C(=O)O)c2c(c1C)OC(=O)c1c(C)cc(O)c(CNc3ccc(NC(C)=O)cc3)c1O2 [Compound D8, 4-[(4-Acetylamino-phenylamino)-methyl]-3-hydroxy-8-methoxy-1,9-dimethyl-11-oxo-11H-dibenzo[b,e][1,4]dioxepine-6-carboxylic acid] |  | improved significantly | 3.877 | 1.21
